One may read the EC50 as the concentration that produces a half-maximal response.

The experiment relates to recombinant NL-Rluc virus. Nature of the experiment: Inhibition of HIV replication (NL-RLuc pseudotype virus, luciferase). The format is cell-based. The note with it: Human immunodeficiency virus 1, read-out: Activity (EC50).

Turning to `CC1(C)OCCn2c1nc(-c1ncc(Cc3ccc(F)cc3)[nH]1)c(O)c2=O` [Example 1, 2-(5-(4-Fluorobenzyl)-1H-imidazol-2-yl)-3-hydroxy-9,9-dimethyl-6,7-dihydropyrimido[2,1-c][1,4]oxazin-4(9H)-one], the EC50 was 7 nM.
On to `Cn1c(Cc2ccc(F)cc2)cnc1-c1nc2n(c(=O)c1O)CCOC2(C)C` [Example 2, 2-(5-(4-Fluorobenzyl)-1-methyl-1H-imidazol-2-yl)-3-hydroxy-9,9-dimethyl-6,7-dihydropyrimido[2,1-c][1,4]oxazin-4(9H)-one], for which the EC50 amounted to 10 nM.
Regarding `CC1(C)OCCn2c1nc(-c1cn(Cc3ccc(F)cc3)cn1)c(O)c2=O` [Example 3, 2-(1-(4-Fluorobenzyl)-1H-imidazol-4-yl)-3-hydroxy-9,9-dimethyl-6,7-dihydropyrimido[2,1-c][1,4]oxazin-4(9H)-one], the EC50 was found to be 5 nM.
As to `CC1(C)OCCn2c1nc(-c1nnc(Cc3ccc(F)cc3)[nH]1)c(O)c2=O` [Example 4, 2-(5-(4-Fluorobenzyl)-4H-1,2,4-triazol-3-yl)-3-hydroxy-9,9-dimethyl-6,7-dihydropyrimido[2,1-c][1,4]oxazin-4(9H)-one], the EC50 is 51 nM.
Consider `CC1(C)OCCn2c1nc(-c1ncn(Cc3ccc(F)cc3)n1)c(O)c2=O` [Example 5, 2-(1-(4-Fluorobenzyl)-1H-1,2,4-triazol-3-yl)-3-hydroxy-9,9-dimethyl-6,7-dihydropyrimido[2,1-c][1,4]oxazin-4(9H)-one], for which the EC50 came to 7 nM.
Turning to `Cn1c(Cc2ccc(F)cc2)nnc1-c1nc2n(c(=O)c1O)CCOC2(C)C` [Example 6, 2-(5-(4-Fluorobenzyl)-4-methyl-4H-1,2,4-triazol-3-yl)-3-hydroxy-9,9-dimethyl-6,7-dihydropyrimido[2,1-c][1,4]oxazin-4(9H)-one], the half-maximal effective concentration (EC50) came to 141 nM.
To `CCOc1nc(-c2nc(Cc3ccc(F)cc3)no2)c(O)c(=O)n1C` [Example 7, 2-Ethoxy-6-(3-(4-fluorobenzyl)-1,2,4-oxadiazol-5-yl)-5-hydroxy-3-methylpyrimidin-4(3H)-one] belongs 31000 nM.
As for `Cn1c(C2CCCC2)nc(-c2nc(Cc3ccc(F)cc3)no2)c(O)c1=O` [Example 9, 2-Cyclopentyl-6-(3-(4-fluorobenzyl)-1,2,4-oxadiazol-5-yl)-5-hydroxy-3-methylpyrimidin-4(3H)-one], the figure is 22000 nM; as for `CC1(C)OCCn2c1nc(-c1ncc(Cc3ccc(F)cc3)s1)c(O)c2=O` [Example 11, 2-(5-(4-Fluorobenzyl)thiazol-2-yl)-3-hydroxy-9,9-dimethyl-6,7-dihydropyrimido[2,1-c][1,4]oxazin-4(9H)-one], 14 nM; as for `CC1(C)OCCn2c1nc(-c1nnc(Cc3ccc(F)cc3)o1)c(O)c2=O` [Example 12, 2-(5-(4-Fluorobenzyl)-1,3,4-oxadiazol-2-yl)-3-hydroxy-9,9-dimethyl-6,7-dihydropyrimido[2,1-c][1,4]oxazin-4(9H)-one], 8 nM.

The record behind these values is US8383639B2, “HIV integrase inhibitors” (priority 2009, dated 2013).
